Data on 3 molecules can be found in ChEMBL document CHEMBL6071181, “Discovery of ZLC491 as a Potent, Selective, and Orally Bioavailable CDK12/13 PROTAC Degrader” (J Med Chem, 2024).

Active and inactive are the calls of the source. No cut-off for these calls is given here.

What is called half-life is the time in which the quantity being followed falls by half. Read a high half-life as slow loss. By Cmax is commonly meant the highest concentration seen after dosing. In general, AUC(0-t) refers to the area under the concentration-time curve up to a stated or last time point. A high value points to more exposure.

Data set [1] can be described thus: Half-life in Sprague-Dawley rat at 2.5 mg/kg, iv measured after 24 hrs by LC/MS/MS analysis. It is filed as ADME, organism-based. The following applies: in vivo.
Data set [2] in a line: Cmax in Sprague-Dawley rat at 10 mg/kg, po measured after 24 hrs by LC/MS/MS analysis. The following applies: in vivo. The class given is ADME, organism-based.
A short description of data set [3]: Cmax in Sprague-Dawley rat at 2.5 mg/kg, iv measured after 24 hrs by LC/MS/MS analysis. The following applies: in vivo. The class given is ADME, organism-based.
Data set [4] in a line: Half-life in Sprague-Dawley rat at 10 mg/kg, po measured after 24 hrs by LC/MS/MS analysis. The class given is ADME, organism-based. The following applies: in vivo.
Data set [5] can be described thus: AUC (0 to t) in Sprague-Dawley rat at 2.5 mg/kg, iv measured after 24 hrs by LC/MS/MS analysis. The class given is ADME, organism-based. The following applies: in vivo.
Data set [6] is described as follows: AUC (0 to t) in Sprague-Dawley rat at 10 mg/kg, po measured after 24 hrs by LC/MS/MS analysis. It is filed as ADME, organism-based. The note with it: in vivo.
The next data set deals with MDA-MB-231. As to the kind of experiment: Antiproliferative activity against human MDA-MB-231 cells assessed as inhibition of cell growth at 0.0001 to 100 uM incubated for 5 days by CCK8 assay. It is filed as functional, cell-based. The note with it: dose 0.0001-100 µM, time 5.0 day. On the technique in general: Tetrazolium assays rely on reduction of a dye to a coloured formazan, in cell work by metabolically active cells.

The next data set concerns MDA-MB-436. The data set is described as follows: Antiproliferative activity against human MDA-MB-436 cells assessed as inhibition of cell growth at 0.0001 to 100 uM incubated for 5 days by CCK8 assay. The class given is functional, cell-based. The following applies: dose 0.0001-100 µM, time 5.0 day.
In another data set the test system is HEK293. As to the kind of experiment: Antiproliferative activity against HEK293 cells assessed as inhibition of cell growth at 0.0001 to 100 uM incubated for 5 days by CCK8 assay. It is filed as toxicity, cell-based. The note with it: human, hek293, 120 h, dose 0.0001-100 µM, time 5 day.
The subject of the next data set is MRC5. As to the kind of experiment: Antiproliferative activity against human MRC5 cells assessed as inhibition of cell growth at 0.0001 to 100 uM incubated for 5 days by CCK8 assay. The class given is toxicity, cell-based. The following applies: mrc5, 120 h, dose 0.0001-100 µM, time 5 day.
The target in data set [7] is T1, Protein cereblon/Cyclin-dependent kinase 13 (Homo sapiens) (UniProt Q14004+Q96SW2). The data set is described as follows: PROTAC activity at CRBN/CDK13 in human MDA-MB-231 cells assessed as induction of CDK13 degradation at 1 uM incubated for 10 hrs by immunoblotting analysis. The class given is cell-based. On the technique in general: A western blot detects proteins with antibodies after separation by electrophoresis.
Target sequence in this assay (Q14004 whole entry, looked up): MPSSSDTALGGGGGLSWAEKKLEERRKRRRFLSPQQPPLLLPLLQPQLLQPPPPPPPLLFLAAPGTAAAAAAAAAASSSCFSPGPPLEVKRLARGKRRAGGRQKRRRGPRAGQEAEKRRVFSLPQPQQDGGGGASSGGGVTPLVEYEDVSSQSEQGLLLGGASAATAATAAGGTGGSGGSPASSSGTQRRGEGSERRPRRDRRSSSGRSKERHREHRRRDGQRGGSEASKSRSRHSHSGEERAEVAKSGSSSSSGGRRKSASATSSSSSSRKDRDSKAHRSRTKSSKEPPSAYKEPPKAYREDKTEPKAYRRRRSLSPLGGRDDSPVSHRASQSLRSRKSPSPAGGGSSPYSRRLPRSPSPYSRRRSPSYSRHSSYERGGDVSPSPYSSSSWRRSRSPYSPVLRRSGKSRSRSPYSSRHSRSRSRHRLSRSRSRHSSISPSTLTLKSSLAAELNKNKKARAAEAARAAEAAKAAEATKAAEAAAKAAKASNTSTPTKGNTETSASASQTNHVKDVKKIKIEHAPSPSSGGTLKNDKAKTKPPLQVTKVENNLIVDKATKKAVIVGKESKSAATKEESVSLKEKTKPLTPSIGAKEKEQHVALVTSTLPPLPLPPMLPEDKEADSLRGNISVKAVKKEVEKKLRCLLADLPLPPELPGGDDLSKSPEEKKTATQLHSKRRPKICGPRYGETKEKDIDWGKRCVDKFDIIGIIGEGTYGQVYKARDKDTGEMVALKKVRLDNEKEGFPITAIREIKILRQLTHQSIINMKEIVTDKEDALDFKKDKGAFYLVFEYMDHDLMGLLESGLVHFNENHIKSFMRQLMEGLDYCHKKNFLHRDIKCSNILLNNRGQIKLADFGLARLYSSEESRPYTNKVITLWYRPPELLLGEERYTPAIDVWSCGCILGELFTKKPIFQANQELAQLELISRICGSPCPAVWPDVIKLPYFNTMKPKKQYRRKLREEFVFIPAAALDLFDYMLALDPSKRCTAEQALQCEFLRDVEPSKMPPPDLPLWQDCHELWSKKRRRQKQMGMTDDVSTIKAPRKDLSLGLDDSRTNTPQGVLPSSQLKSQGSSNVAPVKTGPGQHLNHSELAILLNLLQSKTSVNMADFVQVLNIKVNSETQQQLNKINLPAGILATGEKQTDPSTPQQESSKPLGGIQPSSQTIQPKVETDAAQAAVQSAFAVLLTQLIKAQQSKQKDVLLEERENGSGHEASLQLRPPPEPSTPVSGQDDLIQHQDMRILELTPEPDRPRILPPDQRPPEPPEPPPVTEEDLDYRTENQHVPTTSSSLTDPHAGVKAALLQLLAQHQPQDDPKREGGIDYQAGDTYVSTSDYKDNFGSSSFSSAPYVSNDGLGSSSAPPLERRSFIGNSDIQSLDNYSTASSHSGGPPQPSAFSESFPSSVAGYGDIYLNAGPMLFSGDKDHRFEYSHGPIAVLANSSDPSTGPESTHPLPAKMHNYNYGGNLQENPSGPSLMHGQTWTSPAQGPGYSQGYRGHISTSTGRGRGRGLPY
Target sequence in this assay (Q96SW2 whole entry, looked up): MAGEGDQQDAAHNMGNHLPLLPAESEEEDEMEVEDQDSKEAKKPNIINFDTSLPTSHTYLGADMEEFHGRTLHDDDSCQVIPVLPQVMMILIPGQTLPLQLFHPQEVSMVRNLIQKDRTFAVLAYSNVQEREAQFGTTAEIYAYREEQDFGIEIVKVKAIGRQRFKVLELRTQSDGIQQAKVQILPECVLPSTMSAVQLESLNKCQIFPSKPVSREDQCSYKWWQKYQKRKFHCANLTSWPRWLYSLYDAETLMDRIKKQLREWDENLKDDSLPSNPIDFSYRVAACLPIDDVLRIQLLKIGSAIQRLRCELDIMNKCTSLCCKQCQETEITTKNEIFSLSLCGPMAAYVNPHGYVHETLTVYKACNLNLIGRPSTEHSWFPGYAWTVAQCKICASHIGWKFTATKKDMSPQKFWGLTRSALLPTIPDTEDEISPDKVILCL

The test system of the next data set is MCF-10A. The data set is described as follows: Antiproliferative activity against human MCF-10A cells assessed as inhibition of cell growth at 0.0001 to 100 uM incubated for 5 days by CCK8 assay. The following applies: 120 h, dose 0.0001-100 µM, time 5 day. It is filed as toxicity, cell-based.
In data set [8] the target is T2, Protein cereblon/Cyclin-dependent kinase 12 (Homo sapiens) (UniProt Q9NYV4+Q96SW2). The data set is described as follows: PROTAC activity at CRBN/CDK12 in human MDA-MB-231 cells assessed as induction of CDK12 degradation at 1 uM incubated for 10 hrs by immunoblotting analysis. The class given is cell-based.
Target sequence in this assay (Q96SW2 whole entry, looked up): as above
Target sequence in this assay (Q9NYV4 whole entry, looked up): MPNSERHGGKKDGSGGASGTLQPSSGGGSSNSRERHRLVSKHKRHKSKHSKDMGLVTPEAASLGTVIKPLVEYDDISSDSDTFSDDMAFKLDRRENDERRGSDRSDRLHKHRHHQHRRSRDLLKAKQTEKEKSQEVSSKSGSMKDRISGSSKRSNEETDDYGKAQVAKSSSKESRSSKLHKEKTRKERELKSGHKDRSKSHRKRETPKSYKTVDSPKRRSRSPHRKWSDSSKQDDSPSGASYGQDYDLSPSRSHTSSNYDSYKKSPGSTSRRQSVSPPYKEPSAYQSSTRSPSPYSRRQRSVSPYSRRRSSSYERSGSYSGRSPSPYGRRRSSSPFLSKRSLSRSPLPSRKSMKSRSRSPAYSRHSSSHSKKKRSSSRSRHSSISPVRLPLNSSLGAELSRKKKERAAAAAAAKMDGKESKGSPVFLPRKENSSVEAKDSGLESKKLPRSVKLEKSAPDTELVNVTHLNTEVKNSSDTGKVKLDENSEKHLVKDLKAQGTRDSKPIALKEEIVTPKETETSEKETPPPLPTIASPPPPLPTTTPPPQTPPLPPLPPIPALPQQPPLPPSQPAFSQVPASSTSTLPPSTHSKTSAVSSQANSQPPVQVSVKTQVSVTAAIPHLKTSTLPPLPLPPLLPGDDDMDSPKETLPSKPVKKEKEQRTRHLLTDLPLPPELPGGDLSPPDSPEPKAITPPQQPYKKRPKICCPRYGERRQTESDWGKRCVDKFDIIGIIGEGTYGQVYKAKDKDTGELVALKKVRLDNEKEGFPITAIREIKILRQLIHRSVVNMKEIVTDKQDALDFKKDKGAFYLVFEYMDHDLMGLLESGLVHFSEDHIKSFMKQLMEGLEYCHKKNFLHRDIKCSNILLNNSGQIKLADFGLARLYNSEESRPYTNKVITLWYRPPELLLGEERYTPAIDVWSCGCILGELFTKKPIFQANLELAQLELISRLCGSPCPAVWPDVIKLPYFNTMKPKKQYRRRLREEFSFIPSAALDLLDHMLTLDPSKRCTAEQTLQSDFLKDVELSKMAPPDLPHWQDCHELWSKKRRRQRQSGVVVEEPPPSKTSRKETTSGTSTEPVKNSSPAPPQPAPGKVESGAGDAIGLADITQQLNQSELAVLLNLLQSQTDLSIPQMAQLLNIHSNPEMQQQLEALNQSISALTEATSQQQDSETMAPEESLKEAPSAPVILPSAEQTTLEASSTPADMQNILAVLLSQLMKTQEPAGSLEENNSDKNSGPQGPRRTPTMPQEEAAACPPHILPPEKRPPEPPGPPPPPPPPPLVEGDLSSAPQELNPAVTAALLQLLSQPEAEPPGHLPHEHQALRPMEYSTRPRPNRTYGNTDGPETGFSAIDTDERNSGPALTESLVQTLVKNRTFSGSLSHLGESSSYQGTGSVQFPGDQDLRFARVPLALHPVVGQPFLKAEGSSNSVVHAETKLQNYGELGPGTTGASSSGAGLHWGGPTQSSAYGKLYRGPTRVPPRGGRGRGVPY
The test system of another data set is HCC38. The data set is described as follows: Antiproliferative activity against human HCC38 cells assessed as inhibition of cell growth at 0.0001 to 100 uM incubated for 5 days by CCK8 assay. It is filed as functional, cell-based. The following applies: dose 0.0001-100 µM, time 5.0 day.
Data set [9] has as its target T1, Protein cereblon/Cyclin-dependent kinase 13 (Homo sapiens). The data set is described as follows: PROTAC activity at CRBN/CDK13 in human MDA-MB-231 cells assessed as induction of CDK13 degradation at 0.3 uM incubated for 15 hrs by immunoblotting analysis relative to control. The class given is cell-based.
Target sequence in this assay (Q96SW2 whole entry, looked up, chain 1 of 2): as the sequence (Q96SW2 whole entry, looked up) above
Target sequence in this assay (Q14004 whole entry, looked up, chain 2 of 2): as the sequence (Q14004 whole entry, looked up) above
Data set [10] deals with T2, Protein cereblon/Cyclin-dependent kinase 12 (Homo sapiens). The data set is described as follows: PROTAC activity at CRBN/CDK12 in human MDA-MB-231 cells assessed as induction of CDK12 degradation at 0.3 uM incubated for 15 hrs by immunoblotting analysis relative to control. The class given is cell-based.
Target sequence in this assay (Q96SW2 whole entry, looked up, chain 1 of 2): as the sequence (Q96SW2 whole entry, looked up) above
Target sequence in this assay (Q9NYV4 whole entry, looked up, chain 2 of 2): as the sequence (Q9NYV4 whole entry, looked up) above

For the molecule `N#Cc1ccc(N[C@H]2CC[C@H](N(C(=O)NCc3ccccc3)c3ccc(N4CCN(C5CCN(c6ccc7c(c6)C(=O)N(C6CCC(=O)NC6=O)C7=O)CC5)CC4)cc3)CC2)nc1` (stereo partly specified), the half-life was 2.38 h in data set [1] and 3.04 h in data set [4]. Besides, the peak concentration (Cmax) in [2] is 308 ng/mL; in data set [3], 2590 ng/mL. Also, the values for the AUC(0-t) at 24 h in data set [5] and in [6] were 4720 ng·h/mL and 3110 ng·h/mL, respectively.

For `CN1C(=O)CCC(N2C(=O)c3cc(F)c(N4CCC(N5CCN(c6ccc(N(C(=O)NCc7ccccc7)[C@H]7CC[C@H](Nc8ccc(C#N)cn8)CC7)cc6)CC5)CC4)cc3C2=O)C1=O` (stereo partly specified), the outcome (with MDA-MB-231; in the data set with MDA-MB-436; in [7]; in data set [8]; in the data set with HCC38) was inactive. For the same molecule, the Activity entry in the data set on HEK293, in the data set on MRC5 and in the data set on MCF-10A was “Non-Toxic” each time.

In the case of “3-benzyl-1-((1r,4r)-4-((5-cyanopyridin-2-yl)amino)cyclohexyl)-1-(4-(4-(1-(2-(2,6-dioxopiperidin-3-yl)-1,3-dioxoisoindolin-5-yl)azetidine-3-carbonyl)piperazin-1-yl)phenyl)urea”, the Activity in [9] was determined as 38%; in [10], 35%.
